Data published in ChEMBL document CHEMBL5131567, “3,5,7-Substituted Pyrazolo[4,3-d]Pyrimidine Inhibitors of Cyclin-Dependent Kinases and Cyclin K Degraders” (J Med Chem, 2022).
The source made the active and inactive calls. The calls are words filed in the database; no cut-off is given here.

Tests used:
[1] = Antiproliferative activity against human UPF1H cells assessed as cell growth inhibition measured after 72 hrs by resazurin dye based microplate reader analysis; type: functional
[2] = target: Cyclin-dependent kinase 2/cyclin E1 (Homo sapiens, UniProt P24941); experiment: Inhibition of His-tagged CDK2/cyclin E1 (unknown origin) expressed in Sf9 cells using histone H1 as substrate in presence of ATP and [gamma33-P]ATP by radioisotope filter binding assay; type: cell-based
[3] = Antiproliferative activity against human MINO cells assessed as cell growth inhibition measured after 72 hrs by resazurin dye based microplate reader analysis; type: functional
[4] = Antiproliferative activity against human Ri-1 cells assessed as cell growth inhibition measured after 72 hrs by resazurin dye based microplate reader analysis; type: functional
[5] = target: Serine/threonine-protein kinase PAK 4 (Homo sapiens) (UniProt O96013); experiment: Inhibition of human PAK4 (2 to 591 residues) expressed in Escherichia coli expression system at 1 uM using RRRLSFAEPG peptide as substrate incubated for 30 mins in presence of [gamma33P]ATP by scintillation based radioactive filter binding assay relative to control
SUD4 = experiment: Antiproliferative activity against human SU-DHL-4 cells assessed as cell growth inhibition measured after 72 hrs by resazurin dye based microplate reader analysis; type: functional
CDK12/Cyclin K = CDK12/Cyclin K (Homo sapiens, UniProt Q9NYV4); experiment: Inhibition of GST-tagged human CDK12/Cyclin K expressed in Sf9 cells using RBER-IRStide peptide as substrate in presence of ATP and [gamma33-P] ATP by radioisotope filter binding assay
OCI-LY19 = experiment: Antiproliferative activity against human OCILY19 cells assessed as cell growth inhibition measured after 72 hrs by resazurin dye based microplate reader analysis; type: functional
[6] = Inhibition of GST-tagged human CDK5/p25 expressed in Sf9 cells using histone H1 as substrate in presence of ATP and [gamma33-P] ATP by radioisotope filter binding assay
[7] = Antiproliferative activity against human OCI-Ly2 cells assessed as cell growth inhibition measured after 72 hrs by resazurin dye based microplate reader analysis; type: functional
NU-DUL-1 = experiment: Antiproliferative activity against human NU-DUL-1 cells assessed as cell growth inhibition measured after 72 hrs by resazurin dye based microplate reader analysis; type: functional
[8] = target: Glycogen synthase kinase-3 beta (Homo sapiens) (UniProt P49841); experiment: Inhibition of human GSK3beta (2 to 420 residues) expressed in Sf21 cells at 1 uM using YRRAAVPPSPSLSRHSSPHQS(PO4)EDEEE peptide as substrate incubated for 30 mins in presence of [gamma33P]ATP by scintillation based radioactive filter binding assay relative to control
[9] = target: Cyclin-dependent kinase 13/Cyclin-K (Homo sapiens, UniProt Q14004); experiment: Inhibition of GST-tagged human CDK13/Cyclin K expressed in Sf9 cells using RBER-IRStide peptide as substrate in presence of ATP and [gamma33-P] ATP by radioisotope filter binding assay
[10] = target: Cyclin-dependent kinase 2/G1/S-specific cyclin-D1 (Homo sapiens, UniProt P24385+P24941); type: cell-based, Sf9
U2932 = experiment: Antiproliferative activity against human U2932 cells assessed as cell growth inhibition measured after 72 hrs by resazurin dye based microplate reader analysis; type: functional
DB = experiment: Antiproliferative activity against human DB cells assessed as cell growth inhibition measured after 72 hrs by resazurin dye based microplate reader analysis; type: functional
CDK9/cyclin T1 = CDK9/cyclin T1 (Homo sapiens, UniProt P50750); experiment: Inhibition of GST-tagged human CDK9/Cyclin T1 expressed in Sf9 cells using (YSPTSPS)2KK peptide as substrate in presence of ATP and [gamma33-P] ATP by radioisotope filter binding assay; type: cell-based
[11] = target: Dual specificity tyrosine-phosphorylation-regulated kinase 1A (Homo sapiens) (UniProt Q13627); experiment: Inhibition of human DYRK1A (1 to 502 residues) expressed in Escherichia coli expression system at 1 uM using KKISGRLSPIMTEQ peptide as substrate incubated for 30 mins in presence of [gamma33P]ATP by scintillation based radioactive filter binding assay relative to control
MINO = experiment: Downregulation of cyclin K levels in human MINO cells up to 5 uM incubated for 2 hrs by immunoblotting analysis; type: functional, cell-based

Chain of Cyclin-dependent kinase 13/Cyclin-K (Q14004 whole entry): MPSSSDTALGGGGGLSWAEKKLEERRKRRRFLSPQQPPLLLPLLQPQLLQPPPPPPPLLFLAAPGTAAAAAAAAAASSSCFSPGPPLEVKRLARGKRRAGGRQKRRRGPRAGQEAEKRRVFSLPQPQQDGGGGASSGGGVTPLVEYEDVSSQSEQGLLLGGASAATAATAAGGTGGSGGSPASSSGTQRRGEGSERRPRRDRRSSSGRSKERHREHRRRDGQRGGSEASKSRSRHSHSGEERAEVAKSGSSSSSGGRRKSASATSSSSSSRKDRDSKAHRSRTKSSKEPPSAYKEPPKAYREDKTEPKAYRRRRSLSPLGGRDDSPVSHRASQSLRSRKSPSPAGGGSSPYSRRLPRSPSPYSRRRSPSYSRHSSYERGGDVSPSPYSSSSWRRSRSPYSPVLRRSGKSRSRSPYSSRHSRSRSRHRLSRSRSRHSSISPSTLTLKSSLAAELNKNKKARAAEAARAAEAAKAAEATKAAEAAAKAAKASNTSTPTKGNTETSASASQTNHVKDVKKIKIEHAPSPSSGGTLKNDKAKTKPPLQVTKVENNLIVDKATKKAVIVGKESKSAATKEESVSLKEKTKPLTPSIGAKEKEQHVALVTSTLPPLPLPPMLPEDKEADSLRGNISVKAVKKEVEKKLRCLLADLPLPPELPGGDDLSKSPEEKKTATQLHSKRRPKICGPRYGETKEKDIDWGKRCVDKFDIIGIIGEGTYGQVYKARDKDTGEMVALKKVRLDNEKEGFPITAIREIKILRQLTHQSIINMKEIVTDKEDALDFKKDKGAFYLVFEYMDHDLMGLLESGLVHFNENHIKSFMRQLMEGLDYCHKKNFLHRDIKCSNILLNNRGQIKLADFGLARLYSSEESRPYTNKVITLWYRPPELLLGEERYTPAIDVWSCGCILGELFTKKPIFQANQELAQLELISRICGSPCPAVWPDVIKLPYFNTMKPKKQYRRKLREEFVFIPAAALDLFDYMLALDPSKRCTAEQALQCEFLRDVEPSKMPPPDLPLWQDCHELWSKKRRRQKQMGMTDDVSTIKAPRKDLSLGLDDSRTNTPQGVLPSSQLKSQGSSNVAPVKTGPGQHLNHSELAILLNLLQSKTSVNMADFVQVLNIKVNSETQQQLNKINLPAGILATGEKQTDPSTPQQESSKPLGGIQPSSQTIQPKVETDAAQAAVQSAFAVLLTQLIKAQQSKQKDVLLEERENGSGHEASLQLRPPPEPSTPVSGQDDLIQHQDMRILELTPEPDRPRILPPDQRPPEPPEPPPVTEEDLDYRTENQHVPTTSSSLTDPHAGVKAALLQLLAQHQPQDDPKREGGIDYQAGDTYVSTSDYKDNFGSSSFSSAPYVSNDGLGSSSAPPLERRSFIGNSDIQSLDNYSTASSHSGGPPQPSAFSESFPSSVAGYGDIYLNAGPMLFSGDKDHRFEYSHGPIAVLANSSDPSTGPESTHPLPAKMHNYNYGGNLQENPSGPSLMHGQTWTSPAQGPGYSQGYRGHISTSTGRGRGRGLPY
Chain of Cyclin-dependent kinase 13/Cyclin-K (O75909 whole entry, further chain): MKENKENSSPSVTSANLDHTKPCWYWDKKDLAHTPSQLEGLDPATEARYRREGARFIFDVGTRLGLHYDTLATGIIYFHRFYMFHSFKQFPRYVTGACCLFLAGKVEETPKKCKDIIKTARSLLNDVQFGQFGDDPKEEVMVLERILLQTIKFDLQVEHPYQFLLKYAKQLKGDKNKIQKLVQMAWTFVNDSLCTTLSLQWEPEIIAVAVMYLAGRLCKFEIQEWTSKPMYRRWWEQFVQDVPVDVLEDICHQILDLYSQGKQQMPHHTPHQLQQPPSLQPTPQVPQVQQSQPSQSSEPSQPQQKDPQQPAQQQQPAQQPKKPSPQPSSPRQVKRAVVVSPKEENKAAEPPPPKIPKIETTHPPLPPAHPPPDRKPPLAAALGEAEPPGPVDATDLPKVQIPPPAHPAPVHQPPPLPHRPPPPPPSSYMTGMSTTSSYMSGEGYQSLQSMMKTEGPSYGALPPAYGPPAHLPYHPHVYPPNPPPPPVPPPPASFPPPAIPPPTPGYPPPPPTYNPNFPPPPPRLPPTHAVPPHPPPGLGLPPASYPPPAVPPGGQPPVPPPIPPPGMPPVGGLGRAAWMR
Chain of CDK9/cyclin T1 (O60563 whole entry, the tested form may be a part): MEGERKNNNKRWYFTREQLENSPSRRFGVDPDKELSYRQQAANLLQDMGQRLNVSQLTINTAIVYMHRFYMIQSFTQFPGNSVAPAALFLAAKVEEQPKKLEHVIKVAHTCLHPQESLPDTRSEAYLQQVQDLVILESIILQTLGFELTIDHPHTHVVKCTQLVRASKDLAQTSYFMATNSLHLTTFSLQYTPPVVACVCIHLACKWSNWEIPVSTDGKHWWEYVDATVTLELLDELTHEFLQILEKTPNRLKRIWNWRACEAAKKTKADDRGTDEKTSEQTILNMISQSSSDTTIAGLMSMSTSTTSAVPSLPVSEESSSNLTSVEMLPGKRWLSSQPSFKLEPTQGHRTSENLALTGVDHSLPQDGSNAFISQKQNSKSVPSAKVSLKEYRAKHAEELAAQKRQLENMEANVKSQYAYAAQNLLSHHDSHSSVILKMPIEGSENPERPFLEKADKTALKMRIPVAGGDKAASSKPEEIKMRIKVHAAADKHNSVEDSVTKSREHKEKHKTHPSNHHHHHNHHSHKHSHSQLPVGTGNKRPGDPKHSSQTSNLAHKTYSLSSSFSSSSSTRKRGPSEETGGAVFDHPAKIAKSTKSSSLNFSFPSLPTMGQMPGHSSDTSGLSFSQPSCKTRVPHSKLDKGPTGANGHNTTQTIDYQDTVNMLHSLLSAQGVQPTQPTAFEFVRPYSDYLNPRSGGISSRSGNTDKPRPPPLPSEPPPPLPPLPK
Chain of CDK9/cyclin T1 (P50750 whole entry, the tested form may be a part): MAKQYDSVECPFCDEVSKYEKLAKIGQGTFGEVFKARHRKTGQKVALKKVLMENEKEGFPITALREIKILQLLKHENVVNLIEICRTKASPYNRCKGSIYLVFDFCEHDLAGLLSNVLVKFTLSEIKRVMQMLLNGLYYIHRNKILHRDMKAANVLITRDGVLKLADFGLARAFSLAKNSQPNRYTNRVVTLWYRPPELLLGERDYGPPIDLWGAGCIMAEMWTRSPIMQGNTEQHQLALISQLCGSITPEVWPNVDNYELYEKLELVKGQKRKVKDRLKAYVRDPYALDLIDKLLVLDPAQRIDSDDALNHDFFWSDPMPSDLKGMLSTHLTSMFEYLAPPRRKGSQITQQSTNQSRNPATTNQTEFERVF
Chain of CDK12/Cyclin K (O75909 whole entry): as the sequence (O75909 whole entry, further chain) above
Chain of CDK12/Cyclin K (Q9NYV4 whole entry): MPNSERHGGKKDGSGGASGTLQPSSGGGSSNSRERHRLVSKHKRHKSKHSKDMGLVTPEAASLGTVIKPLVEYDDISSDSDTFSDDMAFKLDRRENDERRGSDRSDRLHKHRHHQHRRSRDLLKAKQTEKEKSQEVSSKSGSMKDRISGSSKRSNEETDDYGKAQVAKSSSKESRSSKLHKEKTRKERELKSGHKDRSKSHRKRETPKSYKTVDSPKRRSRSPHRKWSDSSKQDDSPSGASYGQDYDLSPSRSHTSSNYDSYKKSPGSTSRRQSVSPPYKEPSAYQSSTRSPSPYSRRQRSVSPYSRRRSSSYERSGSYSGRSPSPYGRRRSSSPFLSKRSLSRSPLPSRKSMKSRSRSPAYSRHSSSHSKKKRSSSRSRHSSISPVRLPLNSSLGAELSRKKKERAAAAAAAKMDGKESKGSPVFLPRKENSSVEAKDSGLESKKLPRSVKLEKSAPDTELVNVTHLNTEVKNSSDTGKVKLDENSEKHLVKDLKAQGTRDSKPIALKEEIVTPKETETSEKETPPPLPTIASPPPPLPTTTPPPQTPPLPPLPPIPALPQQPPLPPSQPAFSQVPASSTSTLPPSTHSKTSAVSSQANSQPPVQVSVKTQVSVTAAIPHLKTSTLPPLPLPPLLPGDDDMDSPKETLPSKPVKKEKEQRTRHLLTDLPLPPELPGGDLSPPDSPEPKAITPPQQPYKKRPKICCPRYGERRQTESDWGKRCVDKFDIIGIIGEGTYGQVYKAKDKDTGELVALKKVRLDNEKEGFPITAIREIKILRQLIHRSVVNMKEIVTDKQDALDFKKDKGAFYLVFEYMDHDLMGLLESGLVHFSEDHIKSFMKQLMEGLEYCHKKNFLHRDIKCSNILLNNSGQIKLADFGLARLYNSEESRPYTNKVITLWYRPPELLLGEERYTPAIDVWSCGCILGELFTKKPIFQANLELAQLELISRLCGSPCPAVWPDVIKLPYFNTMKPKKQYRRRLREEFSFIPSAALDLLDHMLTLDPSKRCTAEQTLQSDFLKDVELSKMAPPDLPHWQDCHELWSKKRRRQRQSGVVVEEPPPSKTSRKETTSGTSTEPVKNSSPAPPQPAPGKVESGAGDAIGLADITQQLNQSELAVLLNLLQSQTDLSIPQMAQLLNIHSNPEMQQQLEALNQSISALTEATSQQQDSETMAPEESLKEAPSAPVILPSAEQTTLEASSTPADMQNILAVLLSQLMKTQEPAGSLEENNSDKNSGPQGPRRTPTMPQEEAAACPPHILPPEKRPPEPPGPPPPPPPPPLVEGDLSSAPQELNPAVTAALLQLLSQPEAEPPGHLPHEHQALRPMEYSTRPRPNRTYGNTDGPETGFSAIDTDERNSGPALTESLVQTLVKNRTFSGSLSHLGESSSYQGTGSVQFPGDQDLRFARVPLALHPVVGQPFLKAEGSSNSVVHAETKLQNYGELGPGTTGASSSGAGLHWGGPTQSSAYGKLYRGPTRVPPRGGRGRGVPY

SMILES | GI50 [1] [nM] | IC50 [2] [nM] | GI50 [3] [nM] | other results
CSc1nc(NCc2ccc(-n3cccn3)cc2)c2n[nH]c(C(C)C)c2n1 | 810 | 24 | 310 | 
CC(C)c1[nH]nc2c(NCc3ccc(-n4cccn4)cc3)nc(SCC(N)CN)nc12 (stereo not given) | 580 | 19 | 410 | 
CC(O)CSc1nc(NCc2ccc(-n3cccn3)cc2)c2n[nH]c(C(C)C)c2n1 (stereo not given) | 61 | 6 | 18 | GI50 [4]: 61 nM; inhibition [5]: > 50%; GI50 (SUD4): 105 nM; IC50 (CDK12/Cyclin K): 156 nM; GI50 (OCI-LY19): 101 nM; IC50 [6]: 179 nM; GI50 [7]: 55 nM; GI50 (NU-DUL-1): 62 nM; inhibition [8]: > 50%; IC50 [9]: 122 nM; IC50 [10]: > 1000 nM; GI50 (U2932): 59 nM; GI50 (DB): 78 nM; IC50 (CDK9/cyclin T1): 62 nM; inhibition [11]: > 50%
CN(C)C/C=C/C(=O)Nc1ccc(C(=O)N2CCC[C@@H](Nc3ncc(Cl)c(-c4c[nH]c5ccccc45)n3)C2)cc1 |  |  |  | Activity (MINO): Active
CC(C)c1n[nH]c2c(NCc3ccc(-c4c[nH]cn4)cc3)nc(SCCO)nc12 | 1420 |  | 490 | 
CC(C)c1n[nH]c2c(NCc3ccc(-n4ccnc4)cc3)nc(SCCN)nc12 | 1770 | 4 | 927 | GI50 [4]: 435 nM; GI50 (SUD4): 435 nM; IC50 (CDK12/Cyclin K): 73 nM; GI50 (OCI-LY19): 3560 nM; IC50 [6]: 54 nM; GI50 [7]: 170 nM; GI50 (NU-DUL-1): 384 nM; IC50 [9]: 67 nM; IC50 [10]: > 1000 nM; GI50 (U2932): 689 nM; GI50 (DB): 599 nM; IC50 (CDK9/cyclin T1): 11 nM
CC(C)c1[nH]nc2c(NCc3ccc(-n4cccn4)cc3)nc(SCC(C)(C)O)nc12 | 87 |  | 34 | 
OCCSc1nc(NCc2ccc(-c3ccccn3)cc2)c2[nH]nc(C3CCC3)c2n1 | 152 | 9 | 58 | 
CC(C)c1n[nH]c2c(NCc3ccc(-n4ccnc4)cc3)nc(S)nc12 | ≥ 10000 | 2300 | ≥ 10000 | 
CC(C)c1[nH]nc2c(NCc3ccc(-n4cccn4)cc3)nc(SCC(O)CN)nc12 (stereo not given) | 95 | 6 | 43 | 
CC(C)c1n[nH]c2c(NCc3ccc(-n4ccnc4)cc3)nc(SCCO)nc12 | 6470 | 12 | 1480 | 
CC(C)c1n[nH]c2c(NCc3ccc(-c4c[nH]cn4)cc3)nc(S)nc12 | ≥ 10000 | 464 | ≥ 10000 | 
CC(C)c1n[nH]c2c(NCc3ccc(-c4cnccn4)cc3)nc(S)nc12 | ≥ 10000 | 978 | 8900 | 
CC[C@H](CO)Nc1nc(NCc2ccccc2)c2ncn(C(C)C)c2n1 [SELICICLIB] | 3070 |  | 1480 | 
NCCSc1nc(NCc2ccc(-c3ccccn3)cc2)c2[nH]nc(C3CCC3)c2n1 | 19 | 5 | 11 | GI50 [4]: 23 nM; GI50 (SUD4): 30 nM; IC50 (CDK12/Cyclin K): 29 nM; GI50 (OCI-LY19): 350 nM; IC50 [6]: 24 nM; GI50 [7]: 40 nM; GI50 (NU-DUL-1): 17 nM; IC50 [9]: 12 nM; IC50 [10]: 940 nM; GI50 (U2932): 44 nM; GI50 (DB): 22 nM; IC50 (CDK9/cyclin T1): 12 nM
CC(C)c1[nH]nc2c(NCc3ccc(-n4cccn4)cc3)nc(S(C)(=O)=O)nc12 | 250 | 53 | 30 | 
CC(C)c1[nH]nc2c(NCc3ccc(-n4cccn4)cc3)nc(S)nc12 | ≥ 10000 | 256 | 5900 | 
CC(C)c1[nH]nc2c(NCc3ccc(-n4cccn4)cc3)nc(SCCN(C)C)nc12 | 84 |  | 18 | 
CC(O)CNc1nc(NCc2ccc(-n3cccn3)cc2)c2n[nH]c(C(C)C)c2n1 (stereo not given) | 42 | 37 | 16 | 
CCC(O)CSc1nc(NCc2ccc(-n3cccn3)cc2)c2n[nH]c(C(C)C)c2n1 (stereo not given) | 591 | 25 | 22 | 
CC(C)c1n[nH]c2c(NCc3ccc(-c4cnccn4)cc3)nc(SCCN)nc12 | 69 |  | 22 | GI50 [4]: 54 nM; GI50 (SUD4): 62 nM; IC50 (CDK12/Cyclin K): 50 nM; GI50 (OCI-LY19): 445 nM; IC50 [6]: 157 nM; GI50 [7]: 33 nM; GI50 (NU-DUL-1): 54 nM; IC50 [9]: 22 nM; IC50 [10]: > 1000 nM; GI50 (U2932): 93 nM; GI50 (DB): 75 nM; IC50 (CDK9/cyclin T1): 23 nM
CC(C)c1[nH]nc2c(NCc3ccc(-n4cccn4)cc3)nc(SCC(C)(C)N)nc12 | 14 |  | 9 | 
CC(C)c1[nH]nc2c(NCc3ccc(-n4cccn4)cc3)nc(SCCN)nc12 | 4 | 2 | 1 | 
CCc1cnn2c(NCc3ccc[n+]([O-])c3)cc(N3CCCC[C@H]3CCO)nc12 [DINACICLIB] | 22 |  | 21 | GI50 [4]: 15 nM; GI50 (SUD4): 9 nM; Activity (MINO): Active; GI50 (OCI-LY19): 20 nM; IC50 [6]: 13 nM; GI50 [7]: 10 nM; GI50 (NU-DUL-1): 10 nM; IC50 [9]: 21 nM; GI50 (U2932): 11 nM; GI50 (DB): 14 nM
CC(C)c1[nH]nc2c(NCc3ccc(-n4cccn4)cc3)nc(SCCCN(C)C)nc12 | 39 | 75 | 17 | 
CC(C)c1[nH]nc2c(NCc3ccc(-n4cccn4)cc3)nc(SCC(O)CO)nc12 (stereo not given) | 26 | 5 | 9 | 
NCCSc1nc(NCc2ccc(-c3ccccn3)cc2)c2[nH]nc(C3CCCC3)c2n1 | 111 | 12 | 31 | GI50 [4]: 330 nM; GI50 (SUD4): 180 nM; IC50 (CDK12/Cyclin K): 304 nM; GI50 (OCI-LY19): 915 nM; IC50 [6]: 127 nM; GI50 [7]: 47 nM; GI50 (NU-DUL-1): 200 nM; IC50 [9]: 334 nM; IC50 [10]: > 1000 nM; GI50 (U2932): 265 nM; GI50 (DB): 107 nM; IC50 (CDK9/cyclin T1): 38 nM
CC(C)c1[nH]nc2c(NCc3ccc(-n4cccn4)cc3)nc(SCCO)nc12 | 20 | 5 | 6 | 
CC(C)c1n[nH]c2c(NCc3ccc(-c4cnccn4)cc3)nc(SCCO)nc12 | 56 |  | 16 | 
